Data taken from patent US9458120B2, “Phenoxypropanol derivative and pharmaceutical composition including the same” (KOREA INSTITUTE OF SCIENCE AND TECHNOLOGY, priority 2011, dated 2016).

What was measured:
[1] = biological target: α1G T-type calcium channel (Homo sapiens, UniProt O43497); assay: Assay for T-type calcium channel inhibition activity (FDSS6000 calcium imaging, KCl activation); format: cell-based; conditions: 75 s pre-treatment then KCl 75 mM, HEK293 cells expressing α1G T-type calcium channel and Kir2.1
Chain of α1G T-type calcium channel (O43497 whole entry): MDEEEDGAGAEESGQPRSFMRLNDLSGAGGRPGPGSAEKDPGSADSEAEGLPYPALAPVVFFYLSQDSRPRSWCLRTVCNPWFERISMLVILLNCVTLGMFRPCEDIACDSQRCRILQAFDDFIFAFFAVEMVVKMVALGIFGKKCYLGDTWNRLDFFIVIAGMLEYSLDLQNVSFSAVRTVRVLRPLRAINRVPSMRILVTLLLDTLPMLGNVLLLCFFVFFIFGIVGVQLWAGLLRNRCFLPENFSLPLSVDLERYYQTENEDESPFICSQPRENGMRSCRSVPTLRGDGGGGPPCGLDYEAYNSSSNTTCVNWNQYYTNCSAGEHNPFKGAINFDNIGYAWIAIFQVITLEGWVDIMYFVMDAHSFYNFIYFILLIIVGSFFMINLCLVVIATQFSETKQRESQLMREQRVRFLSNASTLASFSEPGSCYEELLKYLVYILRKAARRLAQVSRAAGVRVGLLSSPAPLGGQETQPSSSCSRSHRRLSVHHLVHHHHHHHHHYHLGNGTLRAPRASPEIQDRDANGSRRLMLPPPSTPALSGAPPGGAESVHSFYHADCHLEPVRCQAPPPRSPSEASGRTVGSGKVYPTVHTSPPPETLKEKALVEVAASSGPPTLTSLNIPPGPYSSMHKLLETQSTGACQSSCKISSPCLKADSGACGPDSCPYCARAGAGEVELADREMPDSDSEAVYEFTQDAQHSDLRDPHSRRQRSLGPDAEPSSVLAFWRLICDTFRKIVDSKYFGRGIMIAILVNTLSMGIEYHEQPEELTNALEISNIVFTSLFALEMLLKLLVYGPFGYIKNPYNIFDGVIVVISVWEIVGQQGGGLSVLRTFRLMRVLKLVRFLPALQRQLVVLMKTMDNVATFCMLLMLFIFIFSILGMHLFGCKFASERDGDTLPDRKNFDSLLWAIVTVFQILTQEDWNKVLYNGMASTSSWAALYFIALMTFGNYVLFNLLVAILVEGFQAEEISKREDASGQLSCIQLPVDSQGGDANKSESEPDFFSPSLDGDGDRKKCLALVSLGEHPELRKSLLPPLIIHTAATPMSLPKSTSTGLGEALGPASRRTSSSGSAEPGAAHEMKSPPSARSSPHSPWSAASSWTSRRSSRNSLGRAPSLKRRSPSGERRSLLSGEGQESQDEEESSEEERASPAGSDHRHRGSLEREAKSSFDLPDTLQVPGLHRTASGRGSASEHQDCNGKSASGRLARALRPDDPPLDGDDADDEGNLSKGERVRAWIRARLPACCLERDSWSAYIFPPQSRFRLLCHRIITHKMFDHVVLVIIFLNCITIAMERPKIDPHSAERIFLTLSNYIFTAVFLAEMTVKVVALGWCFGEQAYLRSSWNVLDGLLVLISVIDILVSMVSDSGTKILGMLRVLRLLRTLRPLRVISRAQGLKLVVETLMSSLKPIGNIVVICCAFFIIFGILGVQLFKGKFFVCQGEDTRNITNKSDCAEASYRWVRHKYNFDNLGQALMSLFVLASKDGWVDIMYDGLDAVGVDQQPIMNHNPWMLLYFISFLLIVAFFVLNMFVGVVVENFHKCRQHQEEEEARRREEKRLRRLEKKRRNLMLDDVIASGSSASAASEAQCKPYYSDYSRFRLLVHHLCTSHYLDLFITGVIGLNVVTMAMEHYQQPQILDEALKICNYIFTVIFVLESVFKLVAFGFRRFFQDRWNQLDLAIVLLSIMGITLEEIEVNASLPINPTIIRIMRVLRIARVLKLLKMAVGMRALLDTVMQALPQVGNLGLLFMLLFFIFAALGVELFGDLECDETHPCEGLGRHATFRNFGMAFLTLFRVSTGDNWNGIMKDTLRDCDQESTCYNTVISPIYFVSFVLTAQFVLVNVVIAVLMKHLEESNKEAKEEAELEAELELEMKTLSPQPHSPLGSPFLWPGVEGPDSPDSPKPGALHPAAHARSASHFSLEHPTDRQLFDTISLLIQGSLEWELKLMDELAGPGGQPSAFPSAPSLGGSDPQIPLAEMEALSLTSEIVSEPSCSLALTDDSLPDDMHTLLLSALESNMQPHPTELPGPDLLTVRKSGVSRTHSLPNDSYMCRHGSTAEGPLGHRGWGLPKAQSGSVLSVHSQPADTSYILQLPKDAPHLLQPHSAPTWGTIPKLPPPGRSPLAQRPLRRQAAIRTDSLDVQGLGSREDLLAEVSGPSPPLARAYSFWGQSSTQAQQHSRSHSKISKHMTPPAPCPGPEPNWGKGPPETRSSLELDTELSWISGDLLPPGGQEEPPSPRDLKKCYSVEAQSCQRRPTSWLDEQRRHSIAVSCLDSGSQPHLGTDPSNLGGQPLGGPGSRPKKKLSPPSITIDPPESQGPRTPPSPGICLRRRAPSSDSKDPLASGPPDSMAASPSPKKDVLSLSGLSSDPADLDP

TREK-1 channel = biological target: T1, TREK-1 channel (Rattus norvegicus, UniProt Q920B6); assay: Assay for TREK channel inhibition activity (whole cell patch clamp recording, COS7 cell transfected with GFP-rTREK-1); format: cell-based; conditions: COS7 cells, GFP-rTREK-1, whole-cell patch clamp; for inhibition at 101 µM: COS-7, Table 3 (value ± spread), 101 μM [sic], read-out: block % at 101 μM
T1 construct: expressed in transfected cells; host or cells: COS7 (Korean Cell Line Bank), transient transfection with Effectene
T1 sequence (Q920B6 1-426): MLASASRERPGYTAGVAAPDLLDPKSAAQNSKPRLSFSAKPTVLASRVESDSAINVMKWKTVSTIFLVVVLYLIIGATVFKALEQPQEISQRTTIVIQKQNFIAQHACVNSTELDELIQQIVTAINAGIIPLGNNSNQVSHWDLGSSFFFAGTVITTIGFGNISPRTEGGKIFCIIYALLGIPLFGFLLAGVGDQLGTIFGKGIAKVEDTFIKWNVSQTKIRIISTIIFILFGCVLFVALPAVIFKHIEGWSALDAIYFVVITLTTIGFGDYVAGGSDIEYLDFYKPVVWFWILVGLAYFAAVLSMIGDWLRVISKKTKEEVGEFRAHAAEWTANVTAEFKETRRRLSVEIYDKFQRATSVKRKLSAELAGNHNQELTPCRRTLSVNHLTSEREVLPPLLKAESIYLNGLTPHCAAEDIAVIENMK
In short: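 Whole-cell patch clamp was run on COS7 cells 24 h after transfection with GFP-rTREK-1, held at −70 mV, using a 1 s ramp from −100 to +100 mV. Current was taken as the difference between +100 and −100 mV values. Block % = 100 − (current after/before blocker) × 100.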

| inhibition [1] | inhibition at 101 µM (TREK-1 channel) | inhibition at 10 µM (TREK-1 channel; COS-7, Table 2, 10 μM, read-out: block % at 10 μM) | SMILES |
| --- | --- | --- | --- |
| 39.9% | 26.5 ± 3.97% | – | OC(COc1ccc(F)cc1)CN1CCN(Cc2nccn2Cc2ccccc2)CC1 (stereo in doubt) [KKRE10154, (R)-1-(4-((1-benzyl-1H-imidazol-2-yl)methyl)piperazin-1-yl)-3-(4-fluorophenoxy)propan-2-ol] |
| 74.7% | 69.8 ± 4.78% | – | Cc1ccccc1-n1nc(CNC(=O)CN2CCN(C[C@H](O)COc3ccc(F)cc3)CC2)cc1CC(C)C [KKRE10227, (S)-2-(4-(3-(4-Fluorophenoxy)-2-hydroxypropyl)piperazin-1-yl)-N-((5-isobutyl-1-o-tolyl-1H-pyrazol-3-yl)methyl)acetamide] |
| 12% | 36.4 ± 7.38% | – | O[C@@H](COc1ccc(C(F)(F)F)cc1)CN1CCC(N2CCCCC2)CC1 [KKRE10183, (R)-1-(1,4′-bipiperidin-1′-yl)-3-(4-(trifluoromethyl)phenoxy)propan-2-ol] |
| 73.5% | 76.1 ± 5.79% | – | CC(C)Cc1cc(CNC(=O)CN2CCN(C[C@@H](O)COc3ccc(C(F)(F)F)cc3)CC2)nn1-c1cc(Cl)cc(Cl)c1 [KKRE10218, (R)-N-((1-(3,5-dichlorophenyl)-5-isobutyl-1H-pyrazol-3-yl)methyl)-2-(4-(2-hydroxy-3-(4-(trifluoromethyl)phenoxy)propyl)piperazin-1-yl)acetamide] |
| 75.7% | 50.1 ± 10.7% | – | CC(C)Cc1cc(CNC(=O)CN2CCN(C[C@@H](O)COc3ccc(C(F)(F)F)cc3)CC2)nn1-c1ccc(F)cc1 [KKRE10217, (R)-N-((1-(4-fluorophenyl)-5-isobutyl-1H-pyrazol-3-yl)methyl)-2-(4-(2-hydroxy-3-(4-(trifluoromethyl)phenoxy)propyl)piperazin-1-yl)acetamide] |
| 27.1% | 13.5 ± 3.9% | – | Cc1ccc(OC[C@@H](O)CN2CCN(CC(=O)NCc3ccccc3)CC2)cc1 [KKRE10197, (S)-N-benzyl-2-(4-(2-hydroxy-3-(p-tolyloxy)propyl)piperazin-1-yl)acetamide] |
| 26% | 4.7 ± 1.04% | – | Cc1ccc(OC[C@H](O)CN2CCN(CC(=O)NCc3ccccc3)CC2)cc1 [KKRE10196, (R)-N-benzyl-2-(4-(2-hydroxy-3-(p-tolyloxy)propyl)piperazin-1-yl)acetamide] |
| 46.9% | 52.1 ± 7.24% | 52.1% | O[C@@H](COc1ccc(C(F)(F)F)cc1)CN1CCN(Cc2nccn2Cc2ccccc2)CC1 [KKRE10153, (R)-1-(4-((1-benzyl-1H-imidazol-2-yl)methyl)piperazin-1-yl)-3-(4-(trifluoromethyl)phenoxy)propan-2-ol] |
| 80.9% | 82.1 ± 3.81% | – | CC(C)Cc1cc(CNC(=O)CN2CCN(C[C@H](O)COc3ccc(C(F)(F)F)cc3)CC2)nn1-c1ccccc1 [KKRE10215, (S)-2-(4-(2-Hydroxy-3-(4-(trifluoromethyl)phenoxy)propyl)piperazin-1-yl)-N-((5-isobutyl-1-phenyl-1H-pyrazol-3-yl)methyl)acetamide] |
| 10.1% | 49.2 ± 6.75% | – | O[C@H](COc1ccc(C(F)(F)F)cc1)CN1CCC(N2CCOCC2)CC1 [KKRE10187, (S)-1-(4-morpholinopiperidin-1-yl)-3-(4-(trifluoromethyl)phenoxy)propan-2-ol] |

| SMILES | inhibition [1] | inhibition at 101 µM (TREK-1 channel) | inhibition at 10 µM (TREK-1 channel; COS-7, Table 2, 10 μM, read-out: block % at 10 μM) |
| --- | --- | --- | --- |
| O[C@@H](COc1ccc(C(F)(F)F)cc1)CN1CCC(O)(c2ccccc2)CC1 [KKRE10186, (R)-1-(2-hydroxy-3-(4-(trifluoromethyl)phenoxy)propyl)-4-phenylpiperidin-4-ol] | 46.1% | 54 ± 12.1% | – |
| O[C@H](COc1ccc(F)cc1)CN1CCC(O)(c2ccccc2)CC1 [KKRE10181] | 35.4% | 53.9 ± 1.62% | – |
